# Earlier results in patent US20050218054A1, “Apparatus for Producing sterilized water” (priority 2002, published 2005).
# Details: same chlorine concentration
structure (smiles),measurement,value
OCl [hypochlorous acid ion],Sterilization power relative to hypochlorous acid (HOCL),about 1/80
